{"source": "patent US20240116973A1", "about": "“MODIFIED OLIGONUCLEOTIDES” (ALNYLAM PHARMACEUTICALS, INC., priority 2021, published 2024)", "key": {"adenosine deaminase": {"tested_on": "adenosine deaminase", "assay": "Adenosine deaminase assay in human liver S9 fractions", "type": "in vitro ADME", "conditions": "1 μM nucleoside, 1 mg/mL human liver S9, pH 7.4, with/without 1 mM NADPH, up to 2 hours, LC-MS", "description": "In the adenosine deaminase assays, 2′-fluoroadenosie was used as a positive control for the deaminase activity: […]"}, "[1]": {"target": "T1, human mitochondrial RNA polymerase POLRMT (Homo sapiens, UniProt O00411)", "T1 construct": "purchased Indigo Biosciences MV100-40", "T1 sequence (O00411 42-1230)": "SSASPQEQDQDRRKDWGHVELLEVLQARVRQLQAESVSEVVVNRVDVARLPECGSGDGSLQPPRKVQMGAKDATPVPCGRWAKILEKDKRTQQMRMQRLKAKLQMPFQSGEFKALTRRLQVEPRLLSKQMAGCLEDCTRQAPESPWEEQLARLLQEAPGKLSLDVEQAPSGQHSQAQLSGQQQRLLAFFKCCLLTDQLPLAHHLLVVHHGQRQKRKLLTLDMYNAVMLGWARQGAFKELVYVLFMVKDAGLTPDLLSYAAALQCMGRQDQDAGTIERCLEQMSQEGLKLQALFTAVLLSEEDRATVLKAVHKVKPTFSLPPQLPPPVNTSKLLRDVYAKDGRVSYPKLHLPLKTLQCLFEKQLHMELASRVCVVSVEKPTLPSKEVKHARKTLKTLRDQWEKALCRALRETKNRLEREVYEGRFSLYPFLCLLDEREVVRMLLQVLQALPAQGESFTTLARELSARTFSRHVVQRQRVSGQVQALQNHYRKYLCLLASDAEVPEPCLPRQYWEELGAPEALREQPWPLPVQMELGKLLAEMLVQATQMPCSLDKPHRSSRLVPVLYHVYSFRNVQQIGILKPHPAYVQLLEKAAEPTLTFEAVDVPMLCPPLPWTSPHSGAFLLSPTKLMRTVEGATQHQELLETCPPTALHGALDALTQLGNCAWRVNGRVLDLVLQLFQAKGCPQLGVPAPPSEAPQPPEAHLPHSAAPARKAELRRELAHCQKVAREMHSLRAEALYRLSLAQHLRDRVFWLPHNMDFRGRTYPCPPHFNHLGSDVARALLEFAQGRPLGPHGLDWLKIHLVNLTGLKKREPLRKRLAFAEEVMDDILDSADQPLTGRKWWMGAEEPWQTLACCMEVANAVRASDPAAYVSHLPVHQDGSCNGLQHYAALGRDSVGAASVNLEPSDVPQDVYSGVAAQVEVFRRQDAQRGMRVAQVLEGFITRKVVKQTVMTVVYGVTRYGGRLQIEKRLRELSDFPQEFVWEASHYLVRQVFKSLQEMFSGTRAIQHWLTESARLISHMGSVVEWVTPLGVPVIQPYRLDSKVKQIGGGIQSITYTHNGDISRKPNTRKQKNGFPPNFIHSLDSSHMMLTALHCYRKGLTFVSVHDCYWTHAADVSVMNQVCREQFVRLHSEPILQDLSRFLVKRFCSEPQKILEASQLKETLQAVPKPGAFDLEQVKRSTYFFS", "assay": "POLRMT primer extension (polymerase incorporation) assay", "type": "biochemical", "conditions": "single NTP 100 μM or 1 mM, 37° C., 30 min, IEX-HPLC fluorescence", "description": "Purified exonuclease activity-deficient human mitochondrial DNA polymerase POLG was obtained from the lab of Prof. William Copeland (National Institute of Environmental Health Science, Durham, NC, USA). Human mitochondrial POLRMT was purchased from Indigo Biosciences (Cat #MV100-40). Atto-425-labelled DNA and RNA primers were synthesized in house; DNA templates were obtained from IDT.\nThe assays are designed for single NT addition on appropriate template/primer sets: • Atto-425 labeled primers allow for high sensitivity fluorescence detection with very low reaction volumes • Analytical IEX-HPLC with fluorescence detection for optimal resolution of primer-extended products—especially important in competition mixtures • Assays can be applied for the assessment of incorporation efficiency of novel chemistries.\nReaction conditions for the POLG incorporation assays were as follows: 100 nM DNA template, 100 nM 5′-Atto-425-labelled DNA primer, 40 units POLG, 100 μM or 1 mM NTP substrate in 20 mM Tris-HCl, pH 8.0, 2 mM β-mercaptoethanol, 0.1 mg/mL bovine serum albumin, 10 mM MgCl2. Reactions were incubated at 37° C. for 30 min. Reactions were quenched by heating the reaction mixture to 85° C. for 5 min. The reaction mixtures were diluted with water to a final primer concentration of approximately 2.5 nM and analysed by IEX-HPLC with an attached fluorescence detector (excitation wavelength: 436 nm, emission wavelength: 485 nm) and a Dionex BioLCDNAPac PA200 4×250 mm (8 μm particle size) column. […] The reaction mixtures were diluted with water to a final primer concentration of approximately 2.5 nM and analysed by IEX-HPLC as described above, except that the gradient was 35% to 40% buffer B in 16 min.\nRecognition of 2′F—N6MeA NTPs by POLRMT and PolGamma: Incorporation of 2′F—N6MeA, RNA, and 2′-F-RNA NTP monomers were evaluated in a previously reported in vitro primer extension assays catalyzed by the human mitochondrial RNA polymerase POLRMT and human mitochondrial DNA polymerase PolGamma. […]"}, "[2]": {"target": "T2, human mitochondrial DNA polymerase POLG (Homo sapiens, UniProt P54098, D198A/E200A)", "T2 construct": "lab of Prof; William Copeland (National Institute of Environmental Health Science, Durham, NC, USA)", "T2 sequence (P54098 26-1239 D198A/E200A limits assumed)": "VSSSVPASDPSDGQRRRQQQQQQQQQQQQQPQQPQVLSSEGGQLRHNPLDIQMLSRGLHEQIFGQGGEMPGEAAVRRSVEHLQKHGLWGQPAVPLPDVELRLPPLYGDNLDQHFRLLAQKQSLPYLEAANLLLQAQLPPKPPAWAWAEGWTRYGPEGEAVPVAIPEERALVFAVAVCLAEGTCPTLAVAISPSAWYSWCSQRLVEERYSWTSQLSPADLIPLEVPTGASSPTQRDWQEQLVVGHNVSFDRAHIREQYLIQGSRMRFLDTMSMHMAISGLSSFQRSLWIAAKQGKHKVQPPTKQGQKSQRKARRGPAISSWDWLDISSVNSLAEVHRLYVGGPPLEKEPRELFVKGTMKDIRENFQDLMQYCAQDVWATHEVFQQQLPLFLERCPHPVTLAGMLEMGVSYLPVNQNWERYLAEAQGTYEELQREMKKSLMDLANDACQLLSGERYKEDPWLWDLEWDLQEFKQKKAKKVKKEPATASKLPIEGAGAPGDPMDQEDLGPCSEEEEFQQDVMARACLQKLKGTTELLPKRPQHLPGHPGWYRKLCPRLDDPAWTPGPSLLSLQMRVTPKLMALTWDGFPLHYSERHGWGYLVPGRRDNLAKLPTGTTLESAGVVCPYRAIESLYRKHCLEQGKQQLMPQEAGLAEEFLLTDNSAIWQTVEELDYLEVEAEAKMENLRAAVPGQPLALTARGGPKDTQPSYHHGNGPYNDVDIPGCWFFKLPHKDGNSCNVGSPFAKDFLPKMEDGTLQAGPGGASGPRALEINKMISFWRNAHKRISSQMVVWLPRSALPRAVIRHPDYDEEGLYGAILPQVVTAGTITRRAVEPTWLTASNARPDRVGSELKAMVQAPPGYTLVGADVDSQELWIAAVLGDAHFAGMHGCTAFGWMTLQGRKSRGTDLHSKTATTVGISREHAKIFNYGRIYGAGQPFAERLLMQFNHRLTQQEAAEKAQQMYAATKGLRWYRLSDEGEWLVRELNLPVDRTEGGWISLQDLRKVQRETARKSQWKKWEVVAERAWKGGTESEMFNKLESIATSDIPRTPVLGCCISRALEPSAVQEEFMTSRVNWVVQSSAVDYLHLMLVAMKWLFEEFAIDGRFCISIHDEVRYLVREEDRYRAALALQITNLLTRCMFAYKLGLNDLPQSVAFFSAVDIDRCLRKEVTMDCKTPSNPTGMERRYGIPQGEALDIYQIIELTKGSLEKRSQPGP", "assay": "POLG (Pol-γ) primer extension (polymerase incorporation) assay", "type": "biochemical", "conditions": "single NTP 100 μM or 1 mM, 37° C., 30 min, IEX-HPLC fluorescence", "description": "Purified exonuclease activity-deficient human mitochondrial DNA polymerase POLG was obtained from the lab of Prof. William Copeland (National Institute of Environmental Health Science, Durham, NC, USA). Human mitochondrial POLRMT was purchased from Indigo Biosciences (Cat #MV100-40).\nBuffer A was 20 mM sodium phosphate, 15% ACN, pH 11; and buffer B was 20 mM sodium phosphate, 15% ACN, 1 M NaBr, pH 11. […] Briefly, a 5′-fluorescently labeled primer and template were incubated […], and the primer extension reaction was monitored via fluorescence detection ion-exchange high-performance liquid chromatography."}}, "data": [{"smiles": "Nc1ncnc2c1ncn2[C@@H]1O[C@H](CO)[C@H](O)C1F", "note": "(stereo partly shown) [2′-fluoro-adenosine, reference compound]", "values": [{"measurement": "Deaminated metabolite (adenine to inosine conversion)", "setting": "adenosine deaminase", "result": "formation of deaminated metabolite"}]}, {"smiles": "CNc1ncnc2c1ncn2[C@@H]1O[C@H](COP(=O)(O)OP(=O)(O)OP(=O)(O)O)[C@@H](O)[C@H]1F", "note": "[2′Fluoro-N6Methyl-Atp triphosphate, ((2R,3R,4R,5R)-4-fluoro-3-hydroxy-5-(6-(methylamino)-9H-purin-9-yl)tetrahydrofuran-2-yl)methyl triphosphate]", "values": [{"measurement": "PolRMT Incorporation", "setting": "[1]", "result": "Yes"}, {"measurement": "PolRMT Incorporation", "setting": "[1]; listed as 2′F—N6MeA NTP", "result": "good substrate"}, {"measurement": "Pol-γ Incorporation", "setting": "[2]", "result": "Yes"}, {"measurement": "Pol-γ Incorporation", "setting": "[2]; listed as 2′F—N6MeA NTP", "result": "good substrate"}]}, {"smiles": "COC1C(O)[C@@H](CO)O[C@H]1n1cnc2c(NC(C)C)ncnc21", "note": "(stereo partly drawn) [Compound 45, (2R,5R)-2-(hydroxymethyl)-5-[6-(isopropylamino)purin-9-yl]-4-methoxy-tetrahydrofuran-3-ol]", "values": [{"measurement": "Deaminated metabolite (adenine to inosine conversion)", "setting": "adenosine deaminase", "result": "no deaminated metabolites were observed"}]}, {"smiles": "Nc1ncnc2c1ncn2[C@@H]1O[C@H](COP(=O)(O)OP(=O)(O)OP(=O)(O)O)[C@@H](O)[C@H]1O", "note": "[rATP, reference compound]", "values": [{"measurement": "PolRMT Incorporation", "setting": "[1]", "result": "efficiently incorporated"}]}]}
